Measured values published in US9730940B2, “Purine inhibitors of human phosphatidylinositol 3-kinase delta” (priority 2012, dated 2017).

These compounds were tested against PI3K-alpha (Homo sapiens (Human), UniProt P42336) (assay: HTRF PI3K biochemical assay, alpha isoform). Details: ratio PI3K-alpha IC50 value/PI3K-delta IC50 value.
Sequence of PI3K-alpha (P42336 whole entry, looked up, canonical isoform): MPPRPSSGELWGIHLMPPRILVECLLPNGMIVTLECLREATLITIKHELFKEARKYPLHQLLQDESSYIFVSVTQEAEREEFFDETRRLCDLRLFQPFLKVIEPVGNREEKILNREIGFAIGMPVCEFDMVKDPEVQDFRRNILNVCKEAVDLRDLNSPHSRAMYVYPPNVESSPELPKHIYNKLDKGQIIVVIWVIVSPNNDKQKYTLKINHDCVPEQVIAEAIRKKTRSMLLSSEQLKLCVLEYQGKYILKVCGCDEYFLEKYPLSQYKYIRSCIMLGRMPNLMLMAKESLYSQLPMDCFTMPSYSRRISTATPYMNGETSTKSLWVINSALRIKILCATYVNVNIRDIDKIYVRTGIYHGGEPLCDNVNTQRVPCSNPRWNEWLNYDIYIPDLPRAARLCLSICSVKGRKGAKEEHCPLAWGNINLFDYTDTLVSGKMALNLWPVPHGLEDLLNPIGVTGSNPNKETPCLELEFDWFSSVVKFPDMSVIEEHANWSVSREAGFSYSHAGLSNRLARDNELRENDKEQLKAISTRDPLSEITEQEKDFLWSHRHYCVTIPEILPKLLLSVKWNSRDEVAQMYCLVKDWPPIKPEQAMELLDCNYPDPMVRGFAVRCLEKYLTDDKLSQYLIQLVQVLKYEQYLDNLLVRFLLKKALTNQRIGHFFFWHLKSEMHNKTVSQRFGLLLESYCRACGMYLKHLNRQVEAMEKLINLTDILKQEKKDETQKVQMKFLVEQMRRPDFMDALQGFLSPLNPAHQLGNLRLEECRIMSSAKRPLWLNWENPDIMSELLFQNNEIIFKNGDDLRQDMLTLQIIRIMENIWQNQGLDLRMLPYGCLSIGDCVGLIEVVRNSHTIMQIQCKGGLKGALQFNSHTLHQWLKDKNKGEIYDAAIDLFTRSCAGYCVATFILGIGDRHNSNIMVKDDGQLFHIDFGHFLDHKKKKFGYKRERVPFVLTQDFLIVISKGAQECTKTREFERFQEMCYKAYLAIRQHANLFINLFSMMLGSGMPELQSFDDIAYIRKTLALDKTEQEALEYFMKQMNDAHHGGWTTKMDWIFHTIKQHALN
Sequence of PI3K-alpha (P27986 whole entry partner, looked up, canonical isoform): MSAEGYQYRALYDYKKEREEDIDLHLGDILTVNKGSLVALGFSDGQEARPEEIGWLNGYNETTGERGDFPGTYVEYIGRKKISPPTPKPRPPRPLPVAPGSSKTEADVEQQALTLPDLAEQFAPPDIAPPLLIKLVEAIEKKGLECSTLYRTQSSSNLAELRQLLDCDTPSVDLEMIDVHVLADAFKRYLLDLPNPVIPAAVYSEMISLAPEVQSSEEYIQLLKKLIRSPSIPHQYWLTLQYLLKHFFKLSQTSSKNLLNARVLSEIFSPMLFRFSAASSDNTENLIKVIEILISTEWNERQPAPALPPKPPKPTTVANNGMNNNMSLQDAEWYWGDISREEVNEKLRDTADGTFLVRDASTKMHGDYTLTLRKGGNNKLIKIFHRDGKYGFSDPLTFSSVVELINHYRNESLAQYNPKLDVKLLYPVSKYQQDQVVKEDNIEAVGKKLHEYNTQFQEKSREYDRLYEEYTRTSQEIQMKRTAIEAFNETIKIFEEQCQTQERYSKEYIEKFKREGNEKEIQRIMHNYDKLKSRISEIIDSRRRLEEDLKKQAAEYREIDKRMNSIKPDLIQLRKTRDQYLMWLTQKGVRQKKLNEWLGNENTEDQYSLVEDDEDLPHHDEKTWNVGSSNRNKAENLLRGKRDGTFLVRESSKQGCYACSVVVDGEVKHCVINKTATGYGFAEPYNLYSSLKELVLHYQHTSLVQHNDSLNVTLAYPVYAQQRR

| Compound | Relative Selectivity versus PI3Kalpha |
| --- | --- |
| CCn1ncc(-c2nc3c(O[C@H]4CCN(C(=O)c5coc(C)n5)C4)ncnc3n2C)c1C [Compound 2-27, 8-(1-ethyl-5-methyl-1H-pyrazol-4-yl)-9-methyl-6-({(3S)-1-[(2-methyl-1,3-oxazol-4-yl)carbonyl]pyrrolidin-3-yl}oxy)-9H-purine] | >10 |
| CCn1ncc(-c2nc3c(O[C@H]4CCN(C(=O)c5nc(C)oc5C)C4)ncnc3n2C)c1C [Compound 2-28, 6-({(3S)-1-[(2,5-dimethyl-1,3-oxazol-4-yl)carbonyl]pyrrolidin-3-yl}oxy)-8-(1-ethyl-5-methyl-1H-pyrazol-4-yl)-9-methyl-9H-purine] | >10 |
| CCn1ncc(-c2nc3c(O[C@H]4CCN(C(=O)c5cnon5)C4)ncnc3n2C)c1C [Compound 2-29, 8-(1-ethyl-5-methyl-1H-pyrazol-4-yl)-9-methyl-6-{[(3S)-1-(1,2,5-oxadiazol-3-ylcarbonyl)pyrrolidin-3-yl]oxy}-9H-purine] | 1 |
| CCn1ncc(-c2nc3c(O[C@H]4CCN(C(=O)c5cnn(C(C)C)c5)C4)ncnc3n2C)c1C [Compound 2-31, 8-(1-ethyl-5-methyl-1H-pyrazol-4-yl)-9-methyl-6-{[(3S)-1-{[1-(1-methylethyl)-1H-pyrazol-4-yl]carbonyl}pyrrolidin-3-yl]oxy}-9H-purine] | 5 |
| CCn1ncc(-c2nc3c(O[C@H]4CCN(C(=O)c5ccno5)C4)ncnc3n2C)c1C [Compound 2-32, 8-(1-ethyl-5-methyl-1H-pyrazol-4-yl)-6-{[(3S)-1-(isoxazol-5-ylcarbonyl)pyrrolidin-3-yl]oxy}-9-methyl-9H-purine] | >10 |
| CCn1ncc(-c2nc3c(O[C@H]4CCN(C(=O)c5ccn[nH]5)C4)ncnc3n2C)c1C [Compound 2-33, 8-(1-ethyl-5-methyl-1H-pyrazol-4-yl)-9-methyl-6-{[(3S)-1-(1H-pyrazol-5-ylcarbonyl)pyrrolidin-3-yl]oxy}-9H-purine] | >10 |
| CCn1ncc(-c2nc3c(O[C@H]4CCN(C(=O)c5nonc5C)C4)ncnc3n2C)c1C [Compound 2-35, 8-(1-ethyl-5-methyl-1H-pyrazol-4-yl)-9-methyl-6-({(3S)-1-[(4-methyl-1,2,5-oxadiazol-3-yl)carbonyl]pyrrolidin-3-yl}oxy)-9H-purine] | >10 |
| CCn1ncc(-c2nc3c(O[C@H]4CCN(C(=O)c5ccnn5C)C4)ncnc3n2C)c1C [Compound 2-36, 8-(1-ethyl-5-methyl-1H-pyrazol-4-yl)-9-methyl-6-({(3S)-1-[(1-methyl-1H-pyrazol-5-yl)carbonyl]pyrrolidin-3-yl}oxy)-9H-purine] | >10 |
| CCn1ncc(-c2nc3c(O[C@H]4CCN(C(=O)c5ccn(C)n5)C4)ncnc3n2C)c1C [Compound 2-37, 8-(1-ethyl-5-methyl-1H-pyrazol-4-yl)-9-methyl-6-({(3S)-1-[(1-methyl-1H-pyrazol-3-yl)carbonyl]pyrrolidin-3-yl}oxy)-9H-purine] | >10 |
| CCn1ncc(-c2nc3c(O[C@H]4CCN(C(=O)c5cc(C)nn5C)C4)ncnc3n2C)c1C [Compound 2-38, 6-({(3S)-1-[(1,3-dimethyl-1H-pyrazol-5-yl)carbonyl]pyrrolidin-3-yl}oxy)-8-(1-ethyl-5-methyl-1H-pyrazol-4-yl)-9-methyl-9H-purine] | 7 |
| CCn1ncc(-c2nc3c(O[C@H]4CCN(C(=O)c5nccn5C)C4)ncnc3n2C)c1C [Compound 2-39, 8-(1-ethyl-5-methyl-1H-pyrazol-4-yl)-9-methyl-6-({(3S)-1-[(1-methyl-1H-imidazol-2-yl)carbonyl]pyrrolidin-3-yl}oxy)-9H-purine] | >10 |
| CCn1ncc(-c2nc3c(O[C@H]4CCN(C(=O)c5c[nH]nn5)C4)ncnc3n2C)c1C [Compound 2-40, 8-(1-ethyl-5-methyl-1H-pyrazol-4-yl)-9-methyl-6-{[(3S)-1-(1H-1,2,3-triazol-4-ylcarbonyl)pyrrolidin-3-yl]oxy}-9H-purine] | 2 |
| CCn1ncc(-c2nc3c(O[C@H]4CCN(C(=O)c5cnn6cccnc56)C4)ncnc3n2C)c1C [Compound 2-41, 8-(1-ethyl-5-methyl-1H-pyrazol-4-yl)-9-methyl-6-{[(3S)-1-(pyrazolo[1,5-a]pyrimidin-3-ylcarbonyl)pyrrolidin-3-yl]oxy}-9H-purine] | 6 |
| CCn1ncc(-c2nc3c(O[C@H]4CCN(C(=O)c5nnc6n5CCCC6)C4)ncnc3n2C)c1C [Compound 2-42, 8-(1-ethyl-5-methyl-1H-pyrazol-4-yl)-9-methyl-6-{[(3S)-1-(5,6,7,8-tetrahydro[1,2,4]triazolo[4,3-a]pyridin-3-ylcarbonyl)pyrrolidin-3-yl]oxy}-9H-purine] | 3 |
| CCn1ncc(-c2nc3c(O[C@H]4CCN(C(=O)c5c[nH]nc5C(F)(F)F)C4)ncnc3n2C)c1C [Compound 2-43, 8-(1-ethyl-5-methyl-1H-pyrazol-4-yl)-9-methyl-6-{[(3S)-1-{[3-(trifluoromethyl)-1H-pyrazol-4-yl]carbonyl}pyrrolidin-3-yl]oxy}-9H-purine] | 10 |
| CCn1ncc(-c2nc3c(O[C@H]4CCN(C(=O)c5cn(C)nn5)C4)ncnc3n2C)c1C [Compound 2-44, 8-(1-ethyl-5-methyl-1H-pyrazol-4-yl)-9-methyl-6-({(3S)-1-[(1-methyl-1H-1,2,3-triazol-4-yl)carbonyl]pyrrolidin-3-yl}oxy)-9H-purine] | 9 |
| CCn1ncc(-c2nc3c(O[C@H]4CCN(C(=O)c5nnsc5C)C4)ncnc3n2C)c1C [Compound 2-46, 8-(1-ethyl-5-methyl-1H-pyrazol-4-yl)-9-methyl-6-({(3S)-1-[(5-methyl-1,2,3-thiadiazol-4-yl)carbonyl]pyrrolidin-3-yl}oxy)-9H-purine] | >10 |
| CCn1ncc(-c2nc3c(O[C@H]4CCN(C(=O)c5nc6cc(Cl)ccn6n5)C4)ncnc3n2C)c1C [Compound 2-47, 6-({(3S)-1-[(7-chloro[1,2,4]triazolo[1,5-a]pyridin-2-yl)carbonyl]pyrrolidin-3-yl}oxy)-8-(1-ethyl-5-methyl-1H-pyrazol-4-yl)-9-methyl-9H-purine] | 1 |
| CCn1ncc(-c2nc3c(O[C@H]4CCN(C(=O)c5[nH]ncc5C)C4)ncnc3n2C)c1C [Compound 2-48, 8-(1-ethyl-5-methyl-1H-pyrazol-4-yl)-9-methyl-6-({(3S)-1-[(4-methyl-1H-pyrazol-5-yl)carbonyl]pyrrolidin-3-yl}oxy)-9H-purine] | >10 |
| CCn1ncc(-c2nc3c(O[C@H]4CCN(C(=O)c5noc(C(C)(C)O)n5)C4)ncnc3n2C)c1C [Compound 2-50, 2-(3-{[(3S)-3-{[8-(1-ethyl-5-methyl-1H-pyrazol-4-yl)-9-methyl-9H-purin-6-yl]oxy}pyrrolidin-1-yl]carbonyl}-1,2,4-oxadiazol-5-yl)propan-2-ol] | 8 |
| CCn1ncc(-c2nc3c(O[C@H]4CCN(C(=O)c5conc5C)C4)ncnc3n2C)c1C [Compound 2-51, 8-(1-ethyl-5-methyl-1H-pyrazol-4-yl)-9-methyl-6-({(3S)-1-[(3-methylisoxazol-4-yl)carbonyl]pyrrolidin-3-yl}oxy)-9H-purine] | >10 |
| CCn1ncc(-c2nc3c(O[C@H]4CCN(C(=O)c5ccnn5C(C)C)C4)ncnc3n2C)c1C [Compound 2-52, 8-(1-ethyl-5-methyl-1H-pyrazol-4-yl)-9-methyl-6-{[(3S)-1-{[1-(1-methylethyl)-1H-pyrazol-5-yl]carbonyl}pyrrolidin-3-yl]oxy}-9H-purine] | >10 |
| CCn1ncc(-c2nc3c(O[C@H]4CCN(C(=O)c5ccnc(C)c5)C4)ncnc3n2C)c1C [Compound 2-56, 8-(1-ethyl-5-methyl-1H-pyrazol-4-yl)-9-methyl-6-({(3S)-1-[(2-methylpyridin-4-yl)carbonyl]pyrrolidin-3-yl}oxy)-9H-purine] | >10 |
| CCn1ncc(-c2nc3c(O[C@H]4CCN(C(=O)c5ncoc5C)C4)ncnc3n2C)c1C [Compound 2-57, 8-(1-ethyl-5-methyl-1H-pyrazol-4-yl)-9-methyl-6-({(3S)-1-[(5-methyl-1,3-oxazol-4-yl)carbonyl]pyrrolidin-3-yl}oxy)-9H-purine] | >10 |
| CCn1ncc(-c2nc3c(O[C@H]4CCN(C(=O)c5oc(C)nc5C)C4)ncnc3n2C)c1C [Compound 2-58, 6-({(3S)-1-[(2,4-dimethyl-1,3-oxazol-5-yl)carbonyl]pyrrolidin-3-yl}oxy)-8-(1-ethyl-5-methyl-1H-pyrazol-4-yl)-9-methyl-9H-purine] | >10 |
| CCn1ncc(-c2nc3c(O[C@H]4CCN(C(=O)c5cc(C)n(C)n5)C4)ncnc3n2C)c1C [Compound 2-59, 6-({(3S)-1-[(1,5-dimethyl-1H-pyrazol-3-yl)carbonyl]pyrrolidin-3-yl}oxy)-8-(1-ethyl-5-methyl-1H-pyrazol-4-yl)-9-methyl-9H-purine] | 2 |
| CCn1ncc(-c2nc3c(O[C@H]4CCN(C(=O)c5cc(C(F)(F)F)nn5C)C4)ncnc3n2C)c1C [Compound 2-61, 8-(1-ethyl-5-methyl-1H-pyrazol-4-yl)-9-methyl-6-{[(3S)-1-{[1-methyl-3-(trifluoromethyl)-1H-pyrazol-5-yl]carbonyl}pyrrolidin-3-yl]oxy}-9H-purine] | >10 |
| CCn1ncc(-c2nc3c(O[C@H]4CCN(C(=O)C5CC(=O)N(C)C5)C4)ncnc3n2C)c1C (stereo partly drawn) [Compound 2-62, 4-{[(3S)-3-{[8-(1-ethyl-5-methyl-1H-pyrazol-4-yl)-9-methyl-9H-purin-6-yl]oxy}pyrrolidin-1-yl]carbonyl}-1-methylpyrrolidin-2-one] | >10 |
| CCn1ncc(C(=O)N2CC[C@H](Oc3ncnc4c3nc(-c3cnn(CC)c3C)n4C)C2)c1C [Compound 2-63, 8-(1-ethyl-5-methyl-1H-pyrazol-4-yl)-6-({(3S)-1-[(1-ethyl-5-mcthyl-1H-pyrazol-4-yl)carbonyl]pyrrolidin-3-yl}oxy)-9-methyl-9H-purine] | 10 |
